Reference: the NIST ThermoML archive (doi:10.1021/acs.jced.6b00350)
“And” between values parts separate entries of the source, which are not always exact repeats. Equal entries are not always repeated. ± gives the expanded uncertainty stated by the source.

Details: Liquid, Hot wire method

FC(F)CC(F)(F)F [1,1,1,3,3-pentafluoropropane]
Details | thermal conductivity
283.24 K, 29153 kPa | 0.1046 ± 0.0013 W/m/K
283.25 K, 29157 kPa | 0.1041 ± 0.0013 W/m/K
283.29 K, 22330 kPa | 0.1022 ± 0.0013 W/m/K
283.3 K, 22338 kPa | 0.102 ± 0.0013 W/m/K
283.31 K, 16102 kPa | 0.09978 ± 0.0013 W/m/K
283.34 K, 10490 kPa | 0.09781 ± 0.0013 W/m/K
283.35 K, 10482 kPa | 0.09779 ± 0.0013 W/m/K
283.39 K, 5078 kPa | 0.09561 ± 0.0012 W/m/K
283.39 K, 5084 kPa | 0.09578 ± 0.0012 W/m/K
283.4 K, 124 kPa | 0.09369 ± 0.0012 W/m/K
297.28 K, 238 kPa | 0.08846 ± 0.0011 W/m/K and 0.0884 ± 0.0011 W/m/K
297.3 K, 6681 kPa | 0.09147 ± 0.0012 W/m/K
297.31 K, 6682 kPa | 0.09132 ± 0.0012 W/m/K
297.33 K, 12567 kPa | 0.09379 ± 0.0012 W/m/K
297.33 K, 12571 kPa | 0.09396 ± 0.0012 W/m/K
297.36 K, 12582 kPa | 0.09405 ± 0.0012 W/m/K
297.37 K, 12586 kPa | 0.09376 ± 0.0012 W/m/K
297.49 K, 19332 kPa | 0.09652 ± 0.0012 W/m/K
297.49 K, 19337 kPa | 0.09665 ± 0.0012 W/m/K
297.69 K, 229 kPa | 0.08847 ± 0.0011 W/m/K
297.69 K, 239 kPa | 0.0881 ± 0.0011 W/m/K
297.7 K, 6677 kPa | 0.0909 ± 0.0012 W/m/K and 0.09107 ± 0.0012 W/m/K
297.72 K, 12571 kPa | 0.09392 ± 0.0012 W/m/K
297.73 K, 12572 kPa | 0.0939 ± 0.0012 W/m/K
297.75 K, 12582 kPa | 0.09397 ± 0.0012 W/m/K
297.75 K, 12583 kPa | 0.09395 ± 0.0012 W/m/K
297.86 K, 19322 kPa | 0.09664 ± 0.0012 W/m/K
297.86 K, 19340 kPa | 0.09658 ± 0.0012 W/m/K
298.13 K, 233 kPa | 0.08778 ± 0.0011 W/m/K
298.14 K, 234 kPa | 0.08789 ± 0.0011 W/m/K
298.14 K, 6680 kPa | 0.09232 ± 0.0012 W/m/K and 0.09104 ± 0.0012 W/m/K
298.14 K, 12568 kPa | 0.09369 ± 0.0012 W/m/K
298.14 K, 12571 kPa | 0.09358 ± 0.0012 W/m/K
298.17 K, 12583 kPa | 0.09365 ± 0.0012 W/m/K
298.18 K, 12574 kPa | 0.09352 ± 0.0012 W/m/K
298.26 K, 19324 kPa | 0.09657 ± 0.0012 W/m/K
298.27 K, 19334 kPa | 0.09654 ± 0.0012 W/m/K
298.58 K, 12568 kPa | 0.09385 ± 0.0012 W/m/K
298.59 K, 12563 kPa | 0.09379 ± 0.0012 W/m/K
298.6 K, 6668 kPa | 0.09111 ± 0.0012 W/m/K
298.6 K, 6673 kPa | 0.0911 ± 0.0012 W/m/K
298.61 K, 230 kPa | 0.08804 ± 0.0011 W/m/K
298.61 K, 234 kPa | 0.08787 ± 0.0011 W/m/K
298.62 K, 12577 kPa | 0.09374 ± 0.0012 W/m/K
298.62 K, 12578 kPa | 0.09384 ± 0.0012 W/m/K
298.7 K, 19323 kPa | 0.09665 ± 0.0012 W/m/K
298.71 K, 19329 kPa | 0.09658 ± 0.0012 W/m/K
298.72 K, 26079 kPa | 0.09945 ± 0.0013 W/m/K
298.72 K, 26080 kPa | 0.09952 ± 0.0013 W/m/K
298.73 K, 33915 kPa | 0.1022 ± 0.0013 W/m/K
298.73 K, 33916 kPa | 0.1019 ± 0.0013 W/m/K
298.74 K, 41639 kPa | 0.1043 ± 0.0013 W/m/K
298.75 K, 41635 kPa | 0.1043 ± 0.0013 W/m/K
299.08 K, 12562 kPa | 0.09373 ± 0.0012 W/m/K
299.09 K, 12561 kPa | 0.09382 ± 0.0012 W/m/K
299.09 K, 26077 kPa | 0.09835 ± 0.0013 W/m/K
299.09 K, 26079 kPa | 0.09892 ± 0.0013 W/m/K
299.09 K, 33913 kPa | 0.1011 ± 0.0013 W/m/K
299.09 K, 33914 kPa | 0.1013 ± 0.0013 W/m/K
299.09 K, 41634 kPa | 0.1044 ± 0.0013 W/m/K
299.09 K, 41635 kPa | 0.1044 ± 0.0013 W/m/K
299.1 K, 6675 kPa | 0.09125 ± 0.0012 W/m/K
299.11 K, 6673 kPa | 0.0912 ± 0.0012 W/m/K
299.11 K, 12580 kPa | 0.0938 ± 0.0012 W/m/K
299.12 K, 12583 kPa | 0.09382 ± 0.0012 W/m/K
299.14 K, 227 kPa | 0.08804 ± 0.0011 W/m/K
299.14 K, 238 kPa | 0.08799 ± 0.0011 W/m/K
299.19 K, 19316 kPa | 0.09651 ± 0.0012 W/m/K
299.19 K, 19328 kPa | 0.09648 ± 0.0012 W/m/K
299.48 K, 41634 kPa | 0.1043 ± 0.0013 W/m/K
299.49 K, 33910 kPa | 0.1012 ± 0.0013 W/m/K
299.49 K, 33912 kPa | 0.1011 ± 0.0013 W/m/K
299.49 K, 41635 kPa | 0.1042 ± 0.0013 W/m/K
299.5 K, 26073 kPa | 0.09896 ± 0.0013 W/m/K
299.5 K, 26076 kPa | 0.099 ± 0.0013 W/m/K
299.89 K, 41632 kPa | 0.1042 ± 0.0013 W/m/K
299.9 K, 41629 kPa | 0.1042 ± 0.0013 W/m/K
299.91 K, 33908 kPa | 0.1013 ± 0.0013 W/m/K
299.92 K, 33910 kPa | 0.1013 ± 0.0013 W/m/K
299.93 K, 26071 kPa | 0.09862 ± 0.0013 W/m/K
299.93 K, 26073 kPa | 0.09884 ± 0.0013 W/m/K
300.35 K, 41624 kPa | 0.1042 ± 0.0013 W/m/K
300.35 K, 41629 kPa | 0.1044 ± 0.0013 W/m/K
300.37 K, 33905 kPa | 0.1015 ± 0.0013 W/m/K
300.38 K, 33907 kPa | 0.1015 ± 0.0013 W/m/K
300.4 K, 26067 kPa | 0.09874 ± 0.0013 W/m/K
300.41 K, 26067 kPa | 0.09891 ± 0.0013 W/m/K
301.58 K, 62451 kPa | 0.1103 ± 0.0014 W/m/K
301.58 K, 62455 kPa | 0.11 ± 0.0014 W/m/K
301.59 K, 68041 kPa | 0.1115 ± 0.0014 W/m/K
301.59 K, 68044 kPa | 0.1115 ± 0.0014 W/m/K
301.6 K, 9757 kPa | 0.09158 ± 0.0012 W/m/K
301.61 K, 9755 kPa | 0.09136 ± 0.0012 W/m/K
301.62 K, 52493 kPa | 0.1071 ± 0.0014 W/m/K
301.63 K, 4924 kPa | 0.08962 ± 0.0011 W/m/K
301.63 K, 52493 kPa | 0.1066 ± 0.0014 W/m/K
301.64 K, 4920 kPa | 0.089 ± 0.0011 W/m/K
301.65 K, 27815 kPa | 0.0982 ± 0.0013 W/m/K
301.65 K, 43573 kPa | 0.1041 ± 0.0013 W/m/K
301.65 K, 43574 kPa | 0.104 ± 0.0013 W/m/K
301.66 K, 27823 kPa | 0.09824 ± 0.0013 W/m/K
301.66 K, 35535 kPa | 0.1015 ± 0.0013 W/m/K
301.66 K, 35538 kPa | 0.1014 ± 0.0013 W/m/K
301.67 K, 289 kPa | 0.08665 ± 0.0011 W/m/K
301.67 K, 293 kPa | 0.08649 ± 0.0011 W/m/K
301.69 K, 21591 kPa | 0.09669 ± 0.0012 W/m/K
301.69 K, 21597 kPa | 0.09656 ± 0.0012 W/m/K
301.75 K, 15353 kPa | 0.09399 ± 0.0012 W/m/K
301.75 K, 15355 kPa | 0.0941 ± 0.0012 W/m/K
301.92 K, 62442 kPa | 0.11 ± 0.0014 W/m/K
301.92 K, 62448 kPa | 0.1098 ± 0.0014 W/m/K
301.93 K, 68033 kPa | 0.1115 ± 0.0014 W/m/K
301.93 K, 68038 kPa | 0.1117 ± 0.0014 W/m/K
301.97 K, 52486 kPa | 0.1073 ± 0.0014 W/m/K
301.97 K, 52491 kPa | 0.107 ± 0.0014 W/m/K
301.98 K, 9757 kPa | 0.09137 ± 0.0012 W/m/K
301.99 K, 9759 kPa | 0.09137 ± 0.0012 W/m/K
302 K, 43569 kPa | 0.104 ± 0.0013 W/m/K
302.01 K, 43570 kPa | 0.1038 ± 0.0013 W/m/K
302.02 K, 35523 kPa | 0.1016 ± 0.0013 W/m/K
302.02 K, 35525 kPa | 0.1012 ± 0.0013 W/m/K
302.03 K, 4920 kPa | 0.08894 ± 0.0011 W/m/K
302.03 K, 4923 kPa | 0.08935 ± 0.0011 W/m/K
302.03 K, 27815 kPa | 0.09838 ± 0.0013 W/m/K
302.03 K, 27819 kPa | 0.09867 ± 0.0013 W/m/K
302.07 K, 299 kPa | 0.08696 ± 0.0011 W/m/K
302.07 K, 21586 kPa | 0.09614 ± 0.0012 W/m/K
302.07 K, 21589 kPa | 0.09606 ± 0.0012 W/m/K
302.08 K, 296 kPa | 0.0866 ± 0.0011 W/m/K
302.14 K, 15358 kPa | 0.09347 ± 0.0012 W/m/K
302.14 K, 15361 kPa | 0.09381 ± 0.0012 W/m/K
302.29 K, 62439 kPa | 0.1101 ± 0.0014 W/m/K
302.29 K, 68021 kPa | 0.1115 ± 0.0014 W/m/K
302.3 K, 62445 kPa | 0.11 ± 0.0014 W/m/K
302.3 K, 68022 kPa | 0.1116 ± 0.0014 W/m/K
302.36 K, 52487 kPa | 0.1067 ± 0.0014 W/m/K
302.36 K, 52489 kPa | 0.107 ± 0.0014 W/m/K
302.39 K, 43573 kPa | 0.104 ± 0.0013 W/m/K
